One assay concerns HeLa cells. Nature of the assay: Time-lapse live imaging of mitotic progression and cell fate in HeLa cells (H2B-mCherry, EGFP-α-tubulin). Type of assay: cell-based, human. Particulars: for phenotype after mitotic arrest: 0.1 and 0.25 µM compound; for mitotic duration (prophase to cytokinesis): 24 h imaging, DMSO control 77 ± 6 min. On the procedure:
To determine whether these 34 compounds also induce mitotic abnormalities in human cells, a second screen of these compounds was conducted using HeLa cells. We used time-lapse microscopy to monitor mitotic progression in HeLa cells expressing mCherry-tagged histone H2B to mark chromatin, and EGFP-tagged α-tubulin to monitor microtubules over a 24 h time period in the presence of 2 µM of each of the 34 compounds. The duration of mitosis was determined by live-cell imaging, defined as the period from prophase to cytokinesis based on chromatin and microtubule morphologies (figure 2a). The control DMSO-treated cells progressed through mitosis with a mean mitotic duration of 77 ± 6 min. Among the 34 compounds we tested, nine caused a significant increase in mitotic duration in human cells (figure 2a), ranging from 122 ± 42 min (F15) to 720 ± 53 min (C16). […] As described in the Discussion, we have not carried out a detailed analysis for B8 in this study. To determine whether these cell deaths were caused by apoptosis, caspase activity was assayed for 24 h using time-lapse microscopy in the presence of the 12 compounds. Caspase 3 and Caspase 7 activities were observed 12–24 h after the addition of the compounds (electronic supplementary material, figure S1A). There were also other indications of apoptosis including the morphological chances reminiscing of membrane blebbing, chromatin condensation and cell explosion (electronic supplementary material, figure S1B). Caspase-mediated apoptosis induction is similar to the effects of mitotic arrest caused by anti-microtubule drugs in HeLa cells. […] We conclude that these 12 compounds cause mitotic arrest followed by cell death through apoptotic activation.
Figure 2. Effect of compounds on mitotic progression in HeLa cell (a). Duration of mitosis was analysed by live imaging of HeLa cells stably expressing H2B-mcherry (red) and EGFP-a tubulin (green) treated in the presence of 0.5 µM (K1, L1, J1) or 2 µM (C16, E2, O12, M2, I15, J3, I2, A15, F15) compound for 24 h and the time in mitosis was measured in 200 cells. DMSO-treated cells are shown, which served as the vehicle control. Show mean as ‘+’. (b). The Cell fate after mitosis (normal division, abnormal division or cell death) was quantitatively assessed after the mitotic arrest observed in (a). (c) Dose-dependent change of phenotypes after mitotic arrest with K1, L1 and J1.
For live-cell imaging experiments, 200 000 cells were seeded onto glass-bottom culture dishes (MatTek P35GC-1.5-14-C). Cells were grown overnight before the addition of the compound, and the culture media was replaced with fresh media lacking phenol red to limit phototoxicity before imaging.
Live-cell imaging was performed in a LCV110 U VivaView FL incubator microscope (Olympus) equipped with an X-Cite-exacte illumination source (Excelitas Technologies) and Orca-R2 CCD camera (Hamamatsu Photonics). For screening, images were acquired with a 20 × objective every 15 min for 24–48 h in the differential interference contrast (DIC), m-cherry and GFP channels. For assessment of apoptosis, the cells were monitored every 15 min for 24 h. Individual cells were manually analysed using the CellCognition browser.

Assay [1] relates to BT549, CAL51 and MB-157 breast cancer cell lines. Nature of the assay: Viability dose-response in breast cancer cell lines. Type of assay: cell-based. As to conditions: Homo sapiens, 96 h; range over the breast cell lines and the non-cancer cell line MCF-10A; 4 days of treatment. How it is done:
The sensitivity of the inhibitors L1, J3, A15 and M2 were evaluated in three breast cancer cell lines, (BT549, CAL51 and MB-157) and a non-cancer cell line from the human mammary gland, MCF-10A (figure 8). Drug sensitivity was determined by culturing breast cancer cell lines (black lines) and the non-cancer cell line (red line) with a range of concentrations of each compound, and viability was measured after 4 days of treatment in triplicate.
Figure 8. Dose–response curves in three cancer cell lines (BT549, CAL51 and MB-157) are shown in black and non-cancer cell line; MCF-10A is shown in red. They were subjected to a dose–response matrix of the tubulin inhibitor, L1, A15, M2 and J3, respectively. Viability relative to the vehicle control was measured […] after treatment. Mean ± s.e.m. for n = 3 experiments is shown.
(§1) Cells were plated in 384-well plates at a density of 800 cells per well in 22.5 µl of media. After 24 h, 2.5 µl drug was diluted in media and was added to each well. Following 5 days of incubation, viability was assessed using CellTiter-Glo (Promega) according to the manufacture's protocol. Luminescence in each well was measured using a Synergy Neo2 plate reader (BioTek).

The target of assay [2] is T1, porcine brain tubulin heterodimer (Sus scrofa, UniProt P02550+P02554).
T1 construct: highly purified porcine brain tubulin heterodimer; purchased Cytoskeleton T240 (kit BK011P); host or cells: porcine brain tissue
T1 sequence (P02554 whole entry): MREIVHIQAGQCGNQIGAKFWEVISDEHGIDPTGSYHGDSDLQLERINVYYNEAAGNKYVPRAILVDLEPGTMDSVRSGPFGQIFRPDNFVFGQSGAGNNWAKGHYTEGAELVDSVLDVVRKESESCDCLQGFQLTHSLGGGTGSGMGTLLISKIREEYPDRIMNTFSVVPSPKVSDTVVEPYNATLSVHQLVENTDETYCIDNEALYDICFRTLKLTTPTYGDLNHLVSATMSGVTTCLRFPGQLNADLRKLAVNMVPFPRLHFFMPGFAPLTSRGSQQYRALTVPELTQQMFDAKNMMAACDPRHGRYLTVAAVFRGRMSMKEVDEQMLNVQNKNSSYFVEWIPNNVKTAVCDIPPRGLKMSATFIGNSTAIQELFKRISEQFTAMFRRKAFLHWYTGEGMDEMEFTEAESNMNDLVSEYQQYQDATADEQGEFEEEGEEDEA
T1 sequence (P02550 whole entry): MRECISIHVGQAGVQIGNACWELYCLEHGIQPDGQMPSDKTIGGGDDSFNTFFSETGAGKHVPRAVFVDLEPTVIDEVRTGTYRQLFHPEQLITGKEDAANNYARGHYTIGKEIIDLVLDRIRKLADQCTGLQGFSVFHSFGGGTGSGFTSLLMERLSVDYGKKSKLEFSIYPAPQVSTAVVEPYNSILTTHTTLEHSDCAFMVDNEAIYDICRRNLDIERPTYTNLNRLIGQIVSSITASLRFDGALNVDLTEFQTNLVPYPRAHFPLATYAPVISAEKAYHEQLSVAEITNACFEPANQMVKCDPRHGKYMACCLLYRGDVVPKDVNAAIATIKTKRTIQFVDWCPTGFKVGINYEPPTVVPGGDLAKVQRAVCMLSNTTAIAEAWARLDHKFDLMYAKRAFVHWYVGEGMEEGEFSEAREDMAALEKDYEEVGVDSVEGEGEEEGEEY
The assay is described as follows: In vitro tubulin polymerization assay. Type of assay: biochemical. As to conditions: 37°C; for IC50: figure 3c, 1 h. On the procedure:
To determine whether the 12 compounds affected mitotic spindle organization by directly interfering with tubulin polymerization, we performed in vitro tubulin polymerization assays. […] Tubulin polymerization was monitored every 1 min by measuring fluorescence absorbance at 340 nm for 1 h.
Figure 3. […] Tubulin was incubated with 5 µM of the compounds and DMSO for 60 min at 37°C. The fluorescence increase was monitored every minute at 340 nm. […] (b). […] Nocodazole (NOC) was used as the control. (c). […] (d) The same experiment as (c) but carried out at a different time.
The Tubulin Polymerization HTS Assay Kit (Cytoskeleton, BK011P) was used according to the manufacturer's instructions. All components were added into a 96-well microtiter plate (Corning Costar, cat. no. 3686), then the tubulin reaction mixture was quickly added to the wells, and tubulin polymerization was initiated and monitored every 1 min at 37°C for 1 h by recording fluorescence of excitation wavelength at 340 nm and emission at 450 nm. The tubulin reaction mixture was composed of 80 mM PIPES (pH 6.9), and 1 mM MgCl2, 1 mM EGTA, 1 mM GTP and 2 mg ml^−1 of highly purified porcine brain tubulin heterodimer (Cytoskeleton, cat. no. T240).

For another assay, the system named is MDR-sup fission yeast. The assay is described as follows: Phenotypic assay of microtubule organization in MDR-sup strain expressing GFP-atb2. It counts as cell-based, Schizosaccharomyces pombe. Particulars: same phenotype = no interphase microtubules or mitotic spindles detectable, tubulin in nucleus; figure S2. How it is done:
We have previously screened a collection of 10 371 small molecules to identify compounds that inhibit the growth of a multiple-drug-sensitive fission yeast strain (MDR-sup). We selected 248 compounds (2.4% of the total) that inhibited fission yeast cell growth rate by at least 50% (figure 1a) and subsequently conducted a phenotypic screen of these to identify drugs that affect microtubule organization (figure 1b). After the MDR-sup cells were treated with 5 µM of each compound for 3 h, microtubules were monitored using GFP tagged α-tubulin Atb2 and live-cell fluorescence microscopy. In untreated interphase cells, microtubules form long cytoplasmic arrays that run parallel to the long cellular axis, and in mitotic cells, microtubules form a bipolar spindle in the nucleus and the cytoplasmic microtubules disappear (figure 1c(i), arrow). […] This screen identified 34 compounds that induced cytological phenotypes indicative of defects in microtubule organization or function.
Figure 1. Phenotypic screening in MDR-sup fission yeast (a). Growth assay screening using MDR-sup strain. The optical density was measured with 20 µM of each compound and 248 compounds that gave at least 50% growth inhibition were used for further phenotyping marked by the red lines. Growth was normalized to DMSO-treated cells. (b) Schematic representation of the screening workflow. (c) Examples of the phenotypic assay using L1, P2 and B8 in the MDR-sup strain expressing GFP-atb2 (tubulin) are shown. Cells were incubated in 5 µM compound for 3 h and atb2 signals were detected in living cells. (i) Cells in absence of any compound. In interphase cells, α-tubulin Atb2 protein was detected in the nucleus and interphase microtubules, while mitotic spindles were detected in mitotic cells (arrows). (ii) In the presence of L1, microtubules were depolymerized and tubulin signals were detected distributed throughout the nucleus. (iii) In the presence of P2, short spindles were detected but anaphase spindles were not. (iv) In the presence of B8, interphase microtubules were not detected, while, dots were detected. […]

The test system of another assay is CAL51 cells. Nature of the assay: Clonogenic (colony-forming) assay. Type of assay: cell-based, human. Particulars: 0.1 nM BI2536 alone, 12 h exposure, 9 days growth. On the procedure: Finally, a clonogenic assay was used to further evaluate the synergy effects between the L1 and Plk1 inhibitors to inhibit colony formation of breast cancer CAL51 cells after a 12 h drug exposure. The percentages of colony formation of cells treated with 0.1 nM BI2536 alone and 0.5 µM L1 alone were 89% and 67%, respectively, while cells treated with both 0.1 nM BI2536 and 0.5 µM L1 together were 2% (figure 10) indicating strong synergetic effects in colony formation.
Figure 10. Quantification of the colony formation experiments (n = 3) after a 12 h exposure. CAL51 cells were treated with vehicle control, 0.1 nM BI2536, 0.5 µM L1 or 0.1 nM BI2536 and 0.5 µM L1 for 12 h. Cells were grown for 9 days in fresh media after 12 h exposure. Mean ± s.e.m. (n = 3) is shown.
CAL51 cells were plated at a density of 200 cells per 60 mm tissue culture dish. After 24 h, they were treated with vehicle (DMSO), 0.1 nM BI2538, 0.5 µM L1 or the combination of 0.1 nM BI2538 and 0.5 µM L1, respectively, for 12 h. After an exposure, the cells were washed with warm sterile PBS, and incubated for additional 9 days in fresh media. After the incubation, cells were fixed and stained with a 20% MeOH: 0.01% crystal violet solution for 30 min. Colonies were counted using a stereomicroscope in three independent experiments.

In another assay the test system is WTβIII HeLa cell line. Nature of the assay: Cell viability in HeLa cell line overexpressing wild-type βIII tubulin. It counts as cell-based. As to conditions: Homo sapiens. On the procedure:
One of the main mechanisms of drug resistance is due to the overexpression of class III β tubulin. […] The ability of L1 to overcome β III tubulin-mediated multidrug resistance was evaluated in two HeLa isogenic cell lines.
Figure 7.
as §1

[3] abbreviates: read-out: IC50 of tubulin polymerization.

Like-named read-outs stand apart in the source and are kept apart here.

Usually IC50 stands for the concentration that inhibits the measured activity by half.

Take `COc1ccc(C2Oc3ccc4ccccc4c3C=C2[N+](=O)[O-])cc1OC` (centres unmarked) [J1]: the cell fate entry with HeLa cells (0.5 µM compound) is recorded as “arrested cells initially in mitosis, followed by cell death”; in the assay with HeLa cells (2 µM compound), “immediately induced cell death independent of the phase of the cell cycle”. In the assay on HeLa cells, the “phenotype after mitotic arrest” value is listed as “abnormal multipolar, asymmetric cell divisions, generating 3–4 daughter cells”.
Consider `N#CCCS(=O)(=O)c1nnnn1-c1ccccc1` [M2], for which the IC50 in assay [1] was 1400 to 1900 nM; in assay [2] (setting [3]) it was 220 nM.
On to `COC(=O)Nc1nc2ccc(C(=O)c3cccs3)cc2[nH]1` [NOC, nocodazole, reference compound], for which the “microtubule phenotype with known inhibitors of microtubule polymerization” value with MDR-sup fission yeast is “same phenotype”. Besides, in assay [2] (IC50 of tubulin polymerization), the half-maximal inhibitory concentration (IC50) turned out to be 560 nM.
For `CC(C)(C)C#C/C=N/n1nnc(-c2ccccc2)n1` [F15], the “mitotic duration (prophase to cytokinesis)” value in the assay with HeLa cells (2 µM compound) was 122 ± 42 min. For the same compound, the “effect on in vitro tubulin polymerization” value in assay [2] (5 µM compound, 60 min) is on record as “no observable effects on polymerization”.
For the compound `CCCCNC(=O)n1c(NC(=O)OC)nc2ccccc21` [benomyl], in the assay with MDR-sup fission yeast, the “microtubule phenotype with known inhibitors of microtubule polymerization” value is on record as “same phenotype”.
Take `O=[N+]([O-])C1=Cc2ccccc2OC1c1ccc2c(c1)OCO2` (centres unmarked) [K1]: the cell fate entry with HeLa cells (0.5 µM compound) was “arrested cells initially in mitosis, followed by cell death”; with HeLa cells (2 µM compound) it was “immediately induced cell death independent of the phase of the cell cycle”. Further, the “phenotype after mitotic arrest” value in the assay with HeLa cells was “abnormal multipolar, asymmetric cell divisions, generating 3–4 daughter cells”. In assay [2] (setting [3]), the IC50 was 590 nM.
As to `CC[C@@H]1C(=O)N(C)c2cnc(Nc3ccc(C(=O)NC4CCN(C)CC4)cc3OC)nc2N1C1CCCC1` [BI2536, reference compound], in the assay on CAL51 cells, the “percentage of colony formation” value came to 89%.
In the case of `Nc1nn(S(=O)(=O)c2c(F)c(F)c(F)c(F)c2F)cc1-c1ccc(Cl)cc1` [C16], the “mitotic duration (prophase to cytokinesis)” value with HeLa cells (2 µM compound) stood at 720 ± 53 min.
Take `CC(=O)O[C@H]1C(=O)[C@@]2(C)[C@H]([C@H](OC(=O)c3ccccc3)[C@]3(O)C[C@H](OC(=O)[C@H](O)[C@@H](NC(=O)c4ccccc4)c4ccccc4)C(C)=C1C3(C)C)[C@]1(OC(C)=O)CO[C@@H]1C[C@@H]2O` [paclitaxel]: the IC50 in the assay with WTβIII HeLa cell line came to 5.6 nM.

(Values after publication PMC8424300, “Identification of novel microtubule inhibitors effective in fission yeast and human cells and their effects on breast cancer cell lines” (Open Biology, 2021).)
